Measurements taken from US20200181671A1, “Method for Increasing Content of Mogroside V in Siraitia Grosvenorii Suspended Cells” (Guilin Layn Natural Ingredients Corp, priority 2017, published 2020).

Columns and labels:
[1] = tested on: Siraitia Grosvenorii Cell Culture System; settings: 500 mg/L; cited from earlier work
[2] = tested on: pueraria suspended cells; settings: 1.0 mg/L; cited from earlier work
[3] = tested on: Siraitia grosvenorii suspended cells; test: Content (yield) of mogroside V in Siraitia grosvenorii suspended cells under different treatment conditions, HPLC; format: cell-based
Protocol: (§1) Weighing 1.5 g Siraitia grosvenorii dry weight cells, adding 60% ethanol at a feed-to-liquid ratio of 15:1, ultrasonically extracting for 40 min, extracting for 2 h at 90° C. in a slightly boiling state, repeating the extraction for 3 times, and combining the extracts to concentrate them to 5 mL in a rotary evaporator. The concentrate was filtered through a 0.22 μm filtration membrane, and then qualitative and quantitative analysis was performed using a high-performance liquid chromatograph.
Chromatographic conditions: The chromatographic column was an inverted C18 column, 4.6 mm×250 mm; the mobile phase was water-acetonitrile at a ratio of 78:22, the flow rate was 1.0 mL/min; and the detection wavelength was 203 nm.

[4] = tested on: suspension culture cells of Maackia amurensis Rupr. et Maxim; settings: 200 μmol/L, 9 days; cited from earlier work
[5] = tested on: Siraitia grosvenorii suspended cells; test: Content (yield) of mogroside V in Siraitia grosvenorii suspended cells under different treatment conditions, HPLC; format: cell-based; settings: suspended cells in the logarithmic growing period treated with methyl jasmonate alone
[6] = tested on: Taxus chinensis suspended cells; settings: 100 μmol/L; cited from earlier work
[7] = tested on: Siraitia grosvenorii suspended cells; test: Content of mogroside II in Siraitia grosvenorii suspended cells at the peak of mogroside V, HPLC; format: cell-based; settings: n = 5, x ± s
Protocol: as §1, with “feed to liquid” for “feed-to-liquid”
Chromatographic conditions: The chromatographic column was a ZORBAX SBC C18 column, 4.6 mm×150 mm; the mobile phase was water-acetonitrile gradient elution (0-25 min, 13.5% to 35% acetonitrile), the flow rate was 0.8 mL/min; and the detection wavelength was 203 nm.

Question: With N[C@@H](Cc1ccccc1)C(=O)O [phenylalanine] as the molecule, how does the “increase of the total amount of mogroside V compared with the control group” value [1] read?
Answer: Its value is 260.38%.

Question: With CC/C=C\CC1C(=O)CCC1CC(=O)OC (stereo not shown) [methyl jasmonate, Methyl jasmonate] as the molecule, how does the “content of puerarin in the cell culture” value [2] read?
Answer: The value was “increased”.

Question: And the “total content of mogroside V” value ([3]; inducer added alone, compared with the normal culture group, result in words)?
Answer: The value was “decreased compared with the normal culture group”.

Question: And the “amount of synthesis of mogroside V per unit time” value ([3]; suspended cells in the logarithmic growing period treated with methyl jasmonate alone)?
Answer: The value was “increased”.

Question: What about the “content of isoflavone, of that of the control of the same period” value [4] of the same molecule?
Answer: The value was 417.18%.

Question: And the cell browning [5]?
Answer: The cell browning was “cell browning phenomenon was obvious”.

Question: And the “increase of the content of paclitaxel” value [6]?
Answer: Its value is 10 times.

Question: Which results are given for CC/C=C\CC1C(=O)CCC1CC(=O)OC (stereo not shown) [Comparative Example 4]?
Answer: Content of mogroside II [7]: 32.8 ± 2.6 g/L; yield of mogroside V per unit time ([3]; 1 d of culture, n = 5, x ± s): 31.1 ± 0.8 g/L; yield of mogroside V per unit time ([3]; 3 d of culture, n = 5, x ± s): 32.6 ± 0.9 g/L; yield of mogroside V per unit time ([3]; 5 d of culture, n = 5, x ± s): 33.2 ± 1.1 g/L; yield of mogroside V per unit time ([3]; 7 d of culture, n = 5, x ± s): 33.5 ± 1.5 g/L; yield of mogroside V per unit time ([3]; 9 d of culture, n = 5, x ± s): 39.5 ± 2.0 g/L; yield of mogroside V per unit time ([3]; 11 d of culture, n = 5, x ± s): 46.5 ± 1.8 g/L; yield of mogroside V per unit time ([3]; 13 d of culture, n = 5, x ± s): 51.6 ± 1.8 g/L; yield of mogroside V per unit time ([3]; 15 d of culture, n = 5, x ± s): 53.6 ± 1.5 g/L; yield of mogroside V per unit time ([3]; 17 d of culture, n = 5, x ± s): 54.5 ± 1.6 g/L; yield of mogroside V per unit time ([3]; 19 d of culture, n = 5, x ± s): 55.7 ± 1.8 g/L; yield of mogroside V per unit time ([3]; 21 d of culture, n = 5, x ± s): 56.8 ± 2.0 g/L; yield of mogroside V per unit time ([3]; 23 d of culture, n = 5, x ± s): 58.2 ± 2.2 g/L; yield of mogroside V per unit time ([3]; 25 d of culture, n = 5, x ± s): 55.2 ± 2.4 g/L; yield of mogroside V per unit time ([3]; 27 d of culture, n = 5, x ± s): 51.4 ± 2.5 g/L; yield of mogroside V per unit time ([3]; 29 d of culture, n = 5, x ± s): 46.5 ± 2.4 g/L; yield of mogroside V per unit time ([3]; 31 d of culture, n = 5, x ± s): 41.2 ± 2.5 g/L; Peak yield (maximum yield) of mogroside V ([3]; maximum over days 1 to 31 of culture, n = 5, x ± s): 58.2 ± 2.2 g/L
